Measured values reported in ChEMBL document CHEMBL6115007, “Synthesis and in vitro and in vivo evaluation of novel bivalent quinolines as antitumor agents via targeting autophagy in cervical cancer” (Eur J Med Chem, 2025).
Calls of active or inactive are those of the source. The calls are words filed in the database; no cut-off is given here.

How the values were obtained:
Ca-Ski [1] = assay: Antiproliferative activity against human Ca Ski cells assessed as inhibition of cell viability incubated for 24 hrs by CCK8 assay; format: functional, cell-based
[2] = Toxicity in female BALB/c mouse xenografted with human HeLa cells assessed as effect on RBC level at 4 to 8 mg/kg administered every four days and measured after 26 days; format: organism-based; conditions: in vivo, 624 h, dose 4-8 mg/kg, time 26 day
Ca-Ski [3] = assay: Induction of autophagy in human Ca Ski cells transfected with mRFP-GFP-LC3 plasmid assessed as appearance of RFP puncta clusters as aggregates in cytoplasm at 25 uM incubated for 24 hrs by DAPI staining based fluorescence confocal microscopic analysis; format: functional, cell-based
Ca-Ski [4] = assay: Induction of apoptosis in human Ca Ski cells assessed as early apoptotic cells at 1 uM preincubated with Z-VAD-FMK for 1 hrs followed by compound addition and measured after 24 hrs by Annexin V-FITC/PI staining based flow cytometric analysis (reference value: 2.91 %); format: functional
Ca-Ski [5] = assay: Induction of apoptosis in human Ca Ski cells assessed as viable cells at 0.5 uM incubated for 24 hrs by Annexin V-FITC/PI staining based flow cytometric analysis (reference value: 86.8 %); format: functional; conditions: read-out: Activity
Ca-Ski [6] = assay: Induction of autophagolysosome formation in human Ca Ski cells transfected with mRFP-GFP-LC3 plasmid assessed as increase in ratio of mRFP to GFP puncta at 0.3 to 0.6 uM incubated for 24 hrs; format: functional, cell-based; conditions: dose 0.3-0.6 µM
C-33-A [7] = assay: Induction of morphological changes in human C-33-A cells assessed as increase in inflated cell appearance at 0.3 to 1.2 uM by microphotographic analysis; format: functional, cell-based; conditions: dose 0.3-1.2 µM
SiHa = assay: Induction of morphological changes in human SiHa cells assessed as increase in inflated cell appearance at 0.5 to 2 uM by microphotographic analysis; format: functional, cell-based; conditions: dose 0.5-2 µM
Ca-Ski [8] = assay: Effect on PARP expression level in Bax deficient human Ca Ski cells at 0.5 to 1 uM incubated for 24 hrs by Western blot analysis; format: functional, cell-based; conditions: dose 0.5-1 µM
Ca-Ski [9] = assay: Inhibition of cell migration in human Ca Ski cells at 0.5 to 1.0 uM measured after 48 hrs by cell scratch assay; format: functional, cell-based; conditions: dose 0.5-1 µM
HeLa [10] = assay: Effect on apoptosis pathway related gene expression in human HeLa cells at 1.2 uM incubated for 24 hrs by GSVA enrichment analysis; format: functional, cell-based
Ca-Ski [11] = assay: Effect on cleaved caspase 3 expression level in human Ca Ski cells at 0.25 to 1 uM incubated for 24 hrs by Western blot analysis; format: functional, cell-based; conditions: dose 0.25-1 µM
HeLa [12] = assay: Effect on cleaved caspase 3 expression level in Bax deficient human HeLa cells at 0.6 to 1.2 uM incubated for 24 hrs by Western blot analysis; format: functional, cell-based; conditions: dose 0.6-1.2 µM
Ca-Ski [13] = assay: Inhibition of colony formation in human Ca Ski cells assessed as reduction in colony forming unit count at 0.1 to 0.4 uM incubated for 24 hrs by crystal violet staining based analysis; format: functional, cell-based; conditions: dose 0.1-0.4 µM
HeLa [14] = assay: Induction of autophagy in human HeLa cells assessed as increase in ATG5 protein level at 0.6 to 1.2 uM incubated for 24 hrs by Western blot analysis; format: functional, cell-based; conditions: dose 0.6-1.2 µM
Ca-Ski [15] = assay: Induction of autophagy in human Ca Ski cells transfected with mRFP-GFP-LC3 plasmid assessed as decrease in GFP fluorescence at 25 uM incubated for 24 hrs by DAPI staining based fluorescence confocal microscopic analysis; format: functional, cell-based
Ca-Ski [16] = assay: Antiproliferative activity against ATG7 deficient human Ca Ski cells assessed as inhibition of cell viability incubated for 24 hrs by CCK8 assay; format: functional, cell-based
HeLa [17] = assay: Effect on SLC7A11 protein expression level in human HeLa cells at 0.6 uM incubated for 24 hrs by Western blot analysis; format: functional, cell-based
HeLa [18] = assay: Effect on cleaved PARP expression level in human HeLa cells at 0.3 to 1.2 uM incubated for 24 hrs by Western blot analysis; format: functional, cell-based; conditions: dose 0.3-1.2 µM
Ca-Ski [19] = assay: Induction of autophagy in human Ca Ski cells transfected with mRFP-GFP-LC3 plasmid assessed as appearance of RFP puncta clusters as aggregates in cytoplasm at 0.3 to 0.6 uM incubated for 24 hrs by DAPI staining based fluorescence confocal microscopic analysis; format: functional, cell-based; conditions: dose 0.3-0.6 µM
Ca-Ski [20] = assay: Induction of autophagy in human Ca Ski cells transfected with mRFP-GFP-LC3 plasmid assessed as stable RFP fluorescence at 0.3 to 0.6 uM incubated for 24 hrs by DAPI staining based fluorescence confocal microscopic analysis; format: functional, cell-based; conditions: dose 0.3-0.6 µM
A549 = assay: Antiproliferative activity against human A549 cells assessed as reduction in cell optical density incubated for 48 hrs by MTT assay; format: functional, cell-based; conditions: A549, 48 h
HeLa [21] = assay: Induction of apoptosis in human HeLa cells assessed as necrotic cells at 0.6 uM incubated for 24 hrs by Annexin V-FITC/PI staining based flow cytometric analysis (reference value: 1.88 %); format: functional
HeLa [22] = assay: Induction of autophagy in human HeLa cells transfected with mRFP-GFP-LC3 plasmid assessed as appearance of RFP puncta clusters as aggregates in cytoplasm at 0.4 to 0.8 uM incubated for 24 hrs by DAPI staining based fluorescence confocal microscopic analysis; format: functional, cell-based; conditions: dose 0.4-0.8 µM
Ca-Ski [23] = assay: Antiproliferative activity against Bax deficient human Ca Ski cells assessed as inhibition of cell viability incubated for 24 hrs by CCK8 assay; format: functional, cell-based
[24] = Toxicity in female BALB/c mouse xenografted with human HeLa cells assessed as effect on BUN level at 4 to 8 mg/kg administered every four days and measured after 26 days; format: organism-based; conditions: in vivo, 624 h, dose 4-8 mg/kg, time 26 day
Ca-Ski [25] = assay: Inhibition of colony formation in ATG7 deficient human Ca Ski cells at 0.1 to 0.4 uM incubated for 24 hrs by crystal violet staining based analysis; format: functional, cell-based; conditions: dose 0.1-0.4 µM
HeLa [26] = assay: Induction of ferroptosis in human HeLa cells assessed as increase in lipid ROS level by measuring rightward shift in fluorescence intensity at 0.6 uM measured after 24 hrs by C11-BODIPY-581/591 staining based flow cytometric analysis; format: functional, cell-based
C-33-A [27] = assay: Induction of morphological changes in human C-33-A cells assessed as decrease in cell adherence to culture dish at 0.3 to 1.2 uM by microphotographic analysis; format: functional, cell-based; conditions: dose 0.3-1.2 µM
HeLa [28] = assay: Induction of apoptosis in human HeLa cells assessed as viable cells at 1.2 uM incubated for 24 hrs by Annexin V-FITC/PI staining based flow cytometric analysis (reference value: 96.2 %); format: functional; conditions: read-out: Activity
Ca-Ski [29] = assay: Effect on PARP expression level in p53 deficient human Ca Ski cells at 0.5 to 1 uM incubated for 24 hrs by Western blot analysis; format: functional, cell-based; conditions: dose 0.5-1 µM
HeLa [30] = assay: Induction of autophagy in human HeLa cells assessed as increase in ATG7 protein level at 0.6 to 1.2 uM incubated for 24 hrs by Western blot analysis; format: functional, cell-based; conditions: dose 0.6-1.2 µM
HeLa [31] = assay: Antiproliferative activity against human HeLa cells assessed as reduction in cell optical density incubated for 48 hrs by MTT assay; format: functional, cell-based
HeLa [32] = assay: Induction of autophagy in human HeLa cells assessed as increase in LC3-II accumulation at 0.6 uM incubated for 3 to 48 hrs by Western blot analysis; format: functional, cell-based; conditions: time 3-48 hrs

For COc1cccc(Nc2ccnc3cc(OCCCCCOc4ccc5c(Nc6cccc(OC)c6)ccnc5c4)ccc23)c1, the Activity (Ca-Ski [1]) was “Dose-dependent-effect”, the IC50 (Ca-Ski [1]) was 775 nM and the Activity [2] was “Non-toxic”. For the same compound, the Activity (Ca-Ski [3]) was “Active”, the Activity (Ca-Ski [4]) was 5.56% and the viability at 0.5 µM (Ca-Ski [5]) was 85.5%. The Activity (Ca-Ski [6]) was “Active”, the Activity (C-33-A [7]) was “Active” and the Activity (SiHa) was “Active”. The Activity (Ca-Ski [8]) was “inactive”, the inhibition (Ca-Ski [9]) was “Active” and the Activity (HeLa [10]) was “Minimal_effect”. For the same compound, the Activity (Ca-Ski [11]) was “inactive”, the Activity (HeLa [12]) was “inactive” and the inhibition (Ca-Ski [13]) was “Active”. The Activity (HeLa [14]) was “Active”, the Activity (Ca-Ski [15]) was “Active” and the IC50 (Ca-Ski [16]) was 2890 nM. For the same compound, the Activity (HeLa [17]) was “Moderate_effect”, the Activity (HeLa [18]) was “inactive” and the Activity (Ca-Ski [19]) was “Active”. The Activity (Ca-Ski [20]) was “Active”, the IC50 (A549) was 2750 nM and the Activity (HeLa [21]) was 2.66%. For the same compound, the Activity (HeLa [22]) was “Active”, the IC50 (Ca-Ski [23]) was 993 nM and the Activity [24] was “Non-toxic”. The inhibition (Ca-Ski [25]) was “Minimal_effect”, the Activity (HeLa [26]) was “inactive” and the Activity (C-33-A [27]) was “Active”. For the same compound, the viability at 1.2 µM (HeLa [28]) was 93.2%, the Activity (Ca-Ski [29]) was “inactive” and the Activity (HeLa [30]) was “Active”. The IC50 (HeLa [31]) was 3710 nM and the Activity (HeLa [32]) was “Active”.
